From paper PMC10641818, “Development of First-in-Class Dual Sirt2/HDAC6 Inhibitors as Molecular Tools for Dual Inhibition of Tubulin Deacetylation” (Journal of Medicinal Chemistry, 2023) come the findings set out here.

For test [1], the system named is HGC27 gastric carcinoma cells. The test is described as follows: Cell viability assay (MTS) HGC27. To be noted: Homo sapiens, HGC-27, 72 h. The test is classed as cell-based. The method in brief:
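HGC27 and PC-3M-luc cells (2000/well) were read by MTS after compound in 0.5% DMSO. W1 (10^4/well) and MCF-7 (2 × 10^3/well) were given half-log dilutions for 72 h, then MTT for 1 h, with absorbance at 570 nm minus 690 nm. Viability was fitted to a four-parameter logistic curve.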

For a further test, the target named is T1, Sirt2 (Homo sapiens, UniProt Q8IXJ6).
T1 construct: expressed in transfected cells; host or cells: HEK293T
T1 sequence (Q8IXJ6 1-389): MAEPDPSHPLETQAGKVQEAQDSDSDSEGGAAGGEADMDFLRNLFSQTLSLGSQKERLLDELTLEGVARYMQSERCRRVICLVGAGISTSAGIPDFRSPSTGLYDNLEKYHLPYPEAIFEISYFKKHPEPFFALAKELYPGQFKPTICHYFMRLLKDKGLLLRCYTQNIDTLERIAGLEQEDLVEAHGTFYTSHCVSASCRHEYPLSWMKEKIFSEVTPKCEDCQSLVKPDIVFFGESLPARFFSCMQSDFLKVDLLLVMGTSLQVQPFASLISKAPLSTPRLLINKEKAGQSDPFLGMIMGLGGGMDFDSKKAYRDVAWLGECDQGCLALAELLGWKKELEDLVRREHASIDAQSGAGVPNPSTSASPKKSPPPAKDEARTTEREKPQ
The experiment in a line: Cell-based NanoBRET assay for Sirt2 target engagement in HEK293T cells. The settings on record: tracer SirReal-TAMRA 2 μM, read-out: Cellular Sirt2 target engagement IC50 (NanoBRET).

The target in a further test is T2, HDAC1 (Homo sapiens, UniProt Q13547).
T2 construct: purchased BPS Bioscience 50051
The test is described as follows: HDAC1 in vitro deacetylation assay (ZMAL). The test is classed as biochemical.

For another test, the system named is α-tubulin acetylation. The test is described as follows: Immunofluorescence microscopy of α-tubulin acetylation in PC-3M-luc cells. The test is classed as cell-based. The settings on record: 20 μM, 5 h. The method, then: The detection of acetylation levels of α-tubulin by immunofluorescence was performed as previously described.[47] In brief, PC-3M-luc cells (25 000 cells per well) were plated in Ibidi 8-well slides (Ibidi, catalogue no. 80826) and incubated overnight at 37 °C, 5% CO2. Next, cells were treated with 20 μM of inhibitor. After 5 h, the medium was removed and the cells washed with PBS and fixed with 4% PFA for 8–10 min at ambient temperature. Cells were rinsed three times with PBS and lysed with extraction buffer (PBS, 0.1% Triton X-100) for 3–5 min at ambient temperature. After another washing step with PBS, blocking buffer (PBS, 0.1% Triton, 5% FCS) was added for at least 10 min before incubating with monoclonal acetylated α-tubulin antibody (1:500, Sigma-Aldrich, catalogue no. T6793) in blocking buffer overnight at 4 °C. […] The cells were rinsed two times with blocking buffer and once with PBS and DAPI in mounting medium ([…] HardSet Antifade Mounting Medium with DAPI, no. H-1500-10) diluted 1:50 in PBS was added and it was incubated for 10 min in the dark. Confocal microscopy was performed with a Leica SP8 confocal microscope equipped with a 40×/1.40 oil objective (Leica Microsystems) keeping the laser settings of the images constant to allow direct comparison of signal intensities between images.

The target of a further test is T3, Sirt2 (demyristoylation) (Homo sapiens, UniProt Q8IXJ6).
T3 construct: the respective sirtuin (Sirt1_134–747, Sirt2_56–356, or Sirt3_118–395) was mixed with; made in house; host or cells: Escherichia coli BL21 Star (DE3)
T3 sequence (Q8IXJ6 56-356): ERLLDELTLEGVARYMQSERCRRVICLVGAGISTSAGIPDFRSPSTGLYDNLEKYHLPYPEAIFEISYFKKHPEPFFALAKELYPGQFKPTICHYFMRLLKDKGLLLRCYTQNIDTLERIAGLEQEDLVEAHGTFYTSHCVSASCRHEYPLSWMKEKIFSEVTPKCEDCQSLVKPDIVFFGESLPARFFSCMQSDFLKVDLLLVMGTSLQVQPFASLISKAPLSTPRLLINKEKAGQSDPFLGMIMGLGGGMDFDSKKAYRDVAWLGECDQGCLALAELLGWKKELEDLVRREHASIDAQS
The test is described as follows: Discontinuous Sirt2 demyristoylation assay (ZMML substrate). The settings on record: mean ± SD. The test is classed as biochemical.

A further test deals with T4, Sirt1 (Homo sapiens, UniProt Q96EB6).
T4 construct: the respective sirtuin (Sirt1_134–747, Sirt2_56–356, or Sirt3_118–395) was mixed with; made in house; host or cells: Escherichia coli BL21 Star (DE3)
T4 sequence (Q96EB6 134-747): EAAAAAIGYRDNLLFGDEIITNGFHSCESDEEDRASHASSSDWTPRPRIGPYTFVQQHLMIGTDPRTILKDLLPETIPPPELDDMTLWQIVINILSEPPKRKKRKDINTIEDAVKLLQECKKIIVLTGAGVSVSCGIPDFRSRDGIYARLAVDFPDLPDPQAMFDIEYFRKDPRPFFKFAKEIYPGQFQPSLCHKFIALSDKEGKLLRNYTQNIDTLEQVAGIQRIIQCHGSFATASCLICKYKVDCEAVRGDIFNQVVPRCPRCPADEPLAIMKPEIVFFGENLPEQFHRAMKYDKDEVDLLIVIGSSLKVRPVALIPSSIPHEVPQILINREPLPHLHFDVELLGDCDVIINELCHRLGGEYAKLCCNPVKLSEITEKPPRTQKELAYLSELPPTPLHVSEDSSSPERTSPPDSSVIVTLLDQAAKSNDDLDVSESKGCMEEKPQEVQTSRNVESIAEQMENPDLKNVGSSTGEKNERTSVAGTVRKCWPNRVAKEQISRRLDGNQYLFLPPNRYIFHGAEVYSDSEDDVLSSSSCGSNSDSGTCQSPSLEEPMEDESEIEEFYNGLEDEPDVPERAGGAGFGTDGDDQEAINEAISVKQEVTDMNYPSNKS
The experiment in a line: Sirt1 in vitro deacetylation assay (ZMAL). Type of test: biochemical.

As usually defined, the inhibition is the percentage by which the read-out fell short of the control. For orientation: IC50 means the concentration at which inhibition is half-maximal. By EC50 is commonly meant the concentration needed to bring the measured effect to its halfway point.

T2 sequence (Q13547 whole entry): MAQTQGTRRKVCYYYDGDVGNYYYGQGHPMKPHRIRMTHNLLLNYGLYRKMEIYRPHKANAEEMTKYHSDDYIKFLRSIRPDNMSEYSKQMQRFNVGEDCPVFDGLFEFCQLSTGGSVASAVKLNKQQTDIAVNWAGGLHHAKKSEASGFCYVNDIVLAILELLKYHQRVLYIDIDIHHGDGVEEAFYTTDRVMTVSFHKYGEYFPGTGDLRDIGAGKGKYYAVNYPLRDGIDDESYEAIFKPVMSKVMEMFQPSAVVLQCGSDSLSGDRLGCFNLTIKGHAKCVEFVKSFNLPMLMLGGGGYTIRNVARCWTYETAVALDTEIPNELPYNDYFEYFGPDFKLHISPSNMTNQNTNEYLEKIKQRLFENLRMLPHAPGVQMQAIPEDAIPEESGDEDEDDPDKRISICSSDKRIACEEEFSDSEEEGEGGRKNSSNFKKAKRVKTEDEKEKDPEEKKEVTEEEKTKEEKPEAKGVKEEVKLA

Take `Cc1cc(C)nc(SCC(=O)Nc2ncc(Cc3cccc(OCc4cn(Cc5ccccc5)nn4)c3)s2)n1` [Compound 4, SirReal1.1, reference compound]: the inhibition at 50 µM in test [1] (@ 50 μM, read-out: HGC27 percentual inhibition) stood at 39%. For the same molecule, the 50% inhibitory concentration (IC50) worked out at 200 nM on Sirt2 and 1400 ± 300 nM at Sirt2 (demyristoylation). Further, at HDAC1 (@ 10 μM, read-out: HDAC1 percentual inhibition), the inhibition at 10 µM is 10%. For the same molecule, the “α-tubulin acetylation (immunofluorescence)” value in the test with α-tubulin acetylation is reported as “very minor”. Further, on Sirt1, the inhibition at 20 µM is < 15%.
In test [1] (MTS, mean ± SD), `CCCCN(Cc1ccc(C(=O)NO)cc1)C(=O)CCCCn1cc(COc2cccc(Cc3cnc(NC(=O)CSc4nc(C)cc(C)n4)s3)c2)nn1` [Compound 33, 4-((N-Butyl-5-(4-((3-((2-(2-((4,6-dimethylpyrimidin-2-yl)thio)acetamido)thiazol-5-yl)methyl)phenoxy)methyl)-1H-1,2,3-triazol-1-yl)pentanamido)methyl)-N-hydroxybenzamide] yielded an EC50 of 12900 ± 900 nM. Moreover, the IC50 stood at 560 nM at Sirt2; 2200 ± 200 nM against HDAC1 (deacetylation, mean ± SD); 9700 ± 1300 nM at Sirt2 (demyristoylation). For the same molecule, in the test on α-tubulin acetylation, the “α-tubulin acetylation (immunofluorescence)” value is given as “the increase in tubulin hyperacetylation was especially pronounced”. For the same molecule, the inhibition at 20 µM on Sirt1 was < 15%.
